From patent US20170159101A1, “DRUG-RESISTANT P97 ATPASE MUTATIONS” (Cleave Biosciences, Inc., priority 2014, published 2017)
“And” between values parts separate entries of the source, which are not always exact repeats. Identical values can stand only once.

What was measured:
Assay type in all cases: cell-based, human
[1] = tested on: DLD-1 resistant cell line clone #61 (p97 I620I/L); assay: GI50 fold-change, resistant clone #61 vs parental; conditions: Clone #61, DLD-1, resistance generated with compound 4, T1859T/C / I620I/L; 72 hrs
Method: (§1) Dose titration of test compounds were conducted in Hct116, DLD-1, or LoVo cell lines. In brief, cells were plated in 384-well plates and a selected candidate drug compound was added in a 10-point 2-fold serial dilution.

[2] = tested on: DLD-1 resistant cell line clone #64 (p97 N660N/S); assay: GI50 fold-change, resistant clone #64 vs parental; conditions: Clone #64, DLD-1, resistance generated with compound 4, A1979G/A / N660N/S; 72 hrs
Method: as §1

[3] = tested on: Hct116 resistant cell line clone #108 (p97 P646T); assay: GI50 fold-change, resistant clone #108 vs parental; conditions: Clone #108, Hct116, resistance generated with compound 4, C1936A / P646T; 72 hrs
Method: (§2) Dose titration of test compounds were conducted in Hct116, DLD-1, or LoVo cell lines. In brief, cells were plated in 384-well plates and a selected candidate drug compound was added in a 10-point 2-fold serial dilution. […] Hct116 cells were plated at 50,000 cells per 15 cm dish and treated with GI50-GI90 doses of test compound for 2-4 weeks until individual colonies of cells were visible on the plate.

[4] = tested on: Hct116 resistant cell line clone #1 (p97 D649N); assay: GI50 fold-change, resistant clone #1 vs parental; conditions: Clone #1, Hct116, resistance generated with compound 2, G1945A / D649N; 72 hrs
Method: as §1

[5] = tested on: LoVo resistant cell line clone #221 (p97 V474V/A); assay: GI50 fold-change, resistant clone #221 vs parental; conditions: Clone #221, LoVo, resistance generated with compound 4, T1421C/T / V474V/A; 72 hrs
Method: as §2

[6] = tested on: DLD-1 resistant cell line clone #58 (p97 D649D/N); assay: GI50 fold-change, resistant clone #58 vs parental; conditions: Clone #58, DLD-1, resistance generated with compound 4, G1945G/A / D649D/N; 72 hrs
Method: as §1

[7] = tested on: DLD-1 resistant cell line clone #87 (p97 S541P); assay: GI50 fold-change, resistant clone #87 vs parental; conditions: Clone #87, DLD-1, resistance generated with compound 4, T1621T/C / S541P; 72 hrs
Method: as §1

[8] = tested on: Hct116 resistant cell line clone #152 (p97 T688I); assay: GI50 fold-change, resistant clone #152 vs parental; conditions: Clone #152, Hct116, resistance generated with compound 4, C2063T / T688I, 72 hrs
Method: as §2

[9] = tested on: DLD-1 resistant cell line clone #83 (p97 N660N/D); assay: GI50 fold-change, resistant clone #83 vs parental; conditions: Clone #83, DLD-1, resistance generated with compound 4, A1978G/A / N660N/D; 72 hrs
Method: as §1

[10] = tested on: Hct116 resistant cell line clone #25 (p97 P500T); assay: GI50 fold-change, resistant clone #25 vs parental; conditions: Clone #25, Hct116, resistance generated with compound 4, C1498A / P500T; 72 hrs
Method: as §1

[11] = tested on: Hct116 resistant cell line clone #117 (p97 L482I); assay: GI50 fold-change, resistant clone #117 vs parental; conditions: Clone #117, Hct116, resistance generated with compound 4, C1444A / L482I; 72 hrs
Method: as §1

[12] = tested on: Hct116 resistant cell line clone #139 (p97 P472S); assay: GI50 fold-change, resistant clone #139 vs parental; conditions: Clone #139, Hct116, resistance generated with compound 4, C1414T / P472S; 72 hrs
Method: as §1

[13] = tested on: DLD-1 resistant cell line clone #82 (p97 A569A/T); assay: GI50 fold-change, resistant clone #82 vs parental; conditions: Clone #82, DLD-1, resistance generated with compound 4, G1705G/A / A569A/T; 72 hrs
Method: as §1

[14] = tested on: Hct116 resistant cell line clone #30 (p97 F516L); assay: GI50 fold-change, resistant clone #30 vs parental; conditions: Clone #30, Hct116, resistance generated with compound 4, T1546C / F516L; 72 hrs
Method: as §1

[15] = tested on: Hct116 resistant cell line clone #42 (p97 P472A); assay: GI50 fold-change, resistant clone #42 vs parental; conditions: Clone #42, Hct116, resistance generated with compound 4, C1414G / P472A; 72 hrs
Method: as §1

[16] = tested on: Hct116 resistant cell line clone #45 (p97 F539I); assay: GI50 fold-change, resistant clone #45 vs parental; conditions: Clone #45, Hct116, resistance generated with compound 4, T1615A / F539I; 72 hrs
Method: as §1

[17] = tested on: Hct116 resistant cell line clone #6 (p97 A528T); assay: GI50 fold-change, resistant clone #6 vs parental; conditions: Clone #6, Hct116, resistance generated with compound 2, G1582 / A528T; 72 hrs
Method: as §1

[18] = tested on: Hct116 resistant cell line clone #22 (p97 N660D); assay: GI50 fold-change, resistant clone #22 vs parental; conditions: Clone #22, Hct116, resistance generated with compound 4, A1978G / N660D; 72 hrs
Method: as §1

[19] = tested on: Hct116 resistant cell line clone #29 (p97 N660K); assay: GI50 fold-change, resistant clone #29 vs parental; conditions: Clone #29, Hct116, resistance generated with compound 4, C1980A / N660K; 72 hrs
Method: as §1

[20] = tested on: Hct116 resistant cell line clone #31 (p97 C535Y); assay: GI50 fold-change, resistant clone #31 vs parental; conditions: Clone #31, Hct116, resistance generated with compound 4, G1604A / C535Y; 72 hrs
Method: as §1

[21] = tested on: Hct116 resistant cell line clone #33 (p97 P472L); assay: GI50 fold-change, resistant clone #33 vs parental; conditions: Clone #33, Hct116, resistance generated with compound 4, C1415T / P472L; 72 hrs
Method: as §1

[22] = tested on: Hct116 resistant cell line clone #34 (p97 E470D/E); assay: GI50 fold-change, resistant clone #34 vs parental; conditions: Clone #34, Hct116, resistance generated with compound 4, G1410T/G / E470D/E; 72 hrs
Method: as §1

[23] = tested on: Hct116 resistant cell line clone #90 (p97 Q473P); assay: GI50 fold-change, resistant clone #90 vs parental; conditions: Clone #90, Hct116, resistance generated with compound 4, A1418C / Q473P; 72 hrs
Method: as §1

[24] = tested on: Hct116 resistant cell line clone #137 (p97 T475I); assay: GI50 fold-change, resistant clone #137 vs parental; conditions: Clone #137, Hct116, resistance generated with compound 4, C1424T / T475I; 72 hrs
Method: as §1

[25] = tested on: Hct116 resistant cell line clone #47 (p97 E498D); assay: GI50 fold-change, resistant clone #47 vs parental; conditions: Clone #47, Hct116, resistance generated with compound 4, G1494T / E498D; 72 hrs
Method: as §1

[26] = tested on: Hct116 resistant cell line clone #180 (p97 A569T); assay: GI50 fold-change, resistant clone #180 vs parental; conditions: Clone #180, Hct116, resistance generated with compound 4, G1705A / A569T; 72 hrs
Method: as §1

[27] = tested on: Hct116 resistant cell line clone #27 (p97 T688A); assay: GI50 fold-change, resistant clone #27 vs parental; conditions: Clone #27, Hct116, resistance generated with compound 4, A2062G / T688A; 72 hrs
Method: as §1

[28] = tested on: Hct116 resistant cell line clone #207 (p97 V485D); assay: GI50 fold-change, resistant clone #207 vs parental; conditions: Clone #207, Hct116, resistance generated with compound 4, T1454A / V485D; 72 hrs
Method: as §1

| Structure (SMILES) | Fold Change in GI50 Compared to Parental Cell Line [1] | Fold Change in GI50 Compared to Parental Cell Line [2] | Fold Change in GI50 Compared to Parental Cell Line [3] | Fold Change in GI50 Compared to Parental Cell Line [5] | Fold Change in GI50 Compared to Parental Cell Line [6] | Fold Change in GI50 Compared to Parental Cell Line [7] | Fold Change in GI50 Compared to Parental Cell Line [8] | Fold Change in GI50 Compared to Parental Cell Line [9] | Fold Change in GI50 Compared to Parental Cell Line [10] | Fold Change in GI50 Compared to Parental Cell Line [11] | Fold Change in GI50 Compared to Parental Cell Line [12] | Fold Change in GI50 Compared to Parental Cell Line [13] | Fold Change in GI50 Compared to Parental Cell Line [14] | Fold Change in GI50 Compared to Parental Cell Line [15] | Fold Change in GI50 Compared to Parental Cell Line [16] | other results |
| --- | --- | --- | --- | --- | --- | --- | --- | --- | --- | --- | --- | --- | --- | --- | --- | --- |
| COc1nc2ccccc2n1-c1nc2c(c(NCc3ccccc3)n1)CCCC2 [Compound 2, N-benzyl-2-(2-methoxy-1H-1,3-benzodiazol-1-yl)-5,6,7,8-tetrahydroquinazolin-4-amine] | 1.1 fold | 0.6 fold | 1.3 fold | 2.2 fold | 1.4 fold | 1.3 fold | 2.1 fold | 2.6 fold | – | – | – | – | – | – | – | Fold Change in GI50 Compared to Parental Cell Line [4]: 4.5 fold |
| Cc1cc2c(C(N)=O)cccc2n1-c1nc2c(c(NCc3ccccc3)n1)CNCC2 [Compound 3, 1-[4-(benzylamino)-5H,6H,7H,8H-pyrido[4,3-d]pyrimidin-2-yl]-2-methyl-1H-indole-4-carboxamide] | 1.0 fold | 1.2 fold | 1.6 fold | 4.1 fold | 2.0 fold | 34.6 fold | 40.2 fold | 2.4 fold | 2.2 fold | 4.4 fold | 4.2 fold | 4.9 fold | 10.0 fold | 7.0 fold | 6.9 fold | Fold Change in GI50 Compared to Parental Cell Line [17]: 13.4 fold |
| Cc1cc2c(CN)cccc2n1-c1nc2c(c(NCc3ccccc3)n1)CCCC2 [Compound 6, 2-[4-(aminomethyl)-2-methyl-1H-indol-1-yl]-N-benzyl-5,6,7,8-tetrahydroquinazolin-4-amine] | 3.3 fold | 2.7 fold | 1.6 fold | 2.2 fold | 2.0 fold | 0.9 fold | 1.4 fold | 1.3 fold | 1.9 fold | 2.3 fold | 3.5 fold | 4.5 fold | 4.1 fold | 3.5 fold | 3.4 fold | Fold Change in GI50 Compared to Parental Cell Line [18]: 1.8 fold; Fold Change in GI50 Compared to Parental Cell Line [19]: 3.8 fold; Fold Change in GI50 Compared to Parental Cell Line [20]: 3.3 fold; Fold Change in GI50 Compared to Parental Cell Line [21]: 5.3 fold; Fold Change in GI50 Compared to Parental Cell Line [22]: 2.7 fold; Fold Change in GI50 Compared to Parental Cell Line ([8]; listed as compound 6): 1.4 fold and 1.42 fold; Fold Change in GI50 Compared to Parental Cell Line [23]: 2.1 fold; Fold Change in GI50 Compared to Parental Cell Line [24]: 2.8 fold; Fold Change in GI50 Compared to Parental Cell Line [25]: 1.8 fold; Fold Change in GI50 Compared to Parental Cell Line [26]: 3.4 fold; Fold Change in GI50 Compared to Parental Cell Line [27]: 2.3 fold; Fold Change in GI50 Compared to Parental Cell Line [28]: 2.7 fold |
